Assay results taken from PMC3894558, “Chemical signatures and new drug targets for gametocytocidal drug development” (Scientific Reports, 2014).
Structures can show the parent of a compound that is named as a salt. Where two headings read alike, the source gives them in different places. Starred links: 1 amine or outer side, 2 acyl side, 3 side chain; linkers in the order of their positions; H or OH if unused. Positions of bridges follow the written chain, without caps; N, C: chain ends. Non-standard residues stand in square brackets, D forms with d. Residues, ends and D or L forms follow the SMILES beside them. Chains are numbered I, II in the order given. Actinocin(9to1) = Cc1c2oc3c(C)ccc(C(=O)[*:1])c3nc-2c(C(=O)[*:2])c(N)c1=O; NMeV = CN[C@H](C(=O)O)C(C)C; Sar = CNCC(=O)O

Experiments:
[1] = tested on: HepG2 cells; conditions: for IC50 in HepG2 cells: 11 concentrations, 1:3 dilution, Inactive = no significant activity at 46 µM; for % Max response: HepG2 cells
Text: (§1) Growth medium was made with Dulbecco's Modified Eagle Medium with 10% fetal bovine serum (FBS).

[2] = tested on: P. falciparum HB3 gametocytes; assay: alamarBlue gametocyte viability assay, strain HB3; type: cell-based, Plasmodium falciparum
Experimental: (§2) Briefly, gametocyte cultures were set up at 0.1% parasitemia and on days 9–10 treated with 50 mM N-acetylglucosamine (NAG) to block further asexual growth. Stage III–V gametocytes were isolated by Percoll density gradient centrifugation on day 12 and returned to culture for 24 hrs before being used in the assay[9].
(§3) Briefly, 2.5 μl/well incomplete medium was dispensed into each well of 1,536-well plates using the Multidrop Combi followed by 23 nl compound transferring using the NX-TR Pintool (WAKO Scientific Solutions, San Diego, CA). Then, 2.5 μl/well of gametocytes was dispensed with a seeding density of 20,000 cells/well using the Multidrop Combi. The assay plates were incubated for 72 hrs at 37°C with 5% CO2.

[3] = tested on: P. falciparum Dd2 gametocytes; assay: alamarBlue gametocyte viability assay, strain Dd2; type: cell-based, Plasmodium falciparum
Experimental: as §2, §3

[4] = tested on: P. falciparum 3D7 gametocytes; assay: alamarBlue gametocyte viability assay, strain 3D7; type: cell-based, Plasmodium falciparum; conditions: for Emax: read-out: Activity against gametocytes Efficacy (% response)
[5] = tested on: HepG2 cells; assay: cells; conditions: Homo sapiens, HepG2, read-out: % Max response
Text: as §1

[6] = tested on: P. falciparum asexual parasites; set-up: method as in earlier work; conditions: SI Table 3, previous screens, cited from earlier work
[7] = P. falciparum 3D7 gametocytes, mean of at least 3 independent experiments, read-out: Gametocyte IC50
[8] = Plasmodium falciparum, HB3, strain profiling, 11 concentrations, 1:3 dilution, three times, read-out: HB3-gametocytes IC50
[9] = Plasmodium falciparum, DD2, strain profiling, 11 concentrations, 1:3 dilution, three times, read-out: Dd2-gametocytes IC50
[10] = Plasmodium falciparum, 3D7, P. falciparum 3D7 gametocytes, mean of at least 3 independent experiments, read-out: Gametocyte IC50
[11] = Plasmodium falciparum, 3D7, SI Table 3, structure clusters
[12] = Plasmodium falciparum, 3D7, SI Table 3, structure clusters, read-out: Activity against gametocytes IC50

Compound	IC50 in HepG2 cells [1]	IC50 [2, 8] [nM]	IC50 [3, 9] [nM]	IC50 [4, 10] [nM]	Emax [5] [%]	also measured
Plicamycin	Inactive					% Max response [1]: 3%; IC50 ([2]; read-out: HB3-gametocytes IC50, strain profiling, 11 concentrations, 1:3 dilution, three times): 2960 nM; IC50 ([3]; read-out: Dd2-gametocytes IC50, strain profiling, 11 concentrations, 1:3 dilution, three times): 2350 nM; IC50 ([4]; read-out: Gametocyte IC50, P. falciparum 3D7 gametocytes, mean of at least 3 independent experiments): 833 nM
CNCCCC1c2ccccc2C=Cc2ccccc21 [Protriptyline hydrochloride]						Activity against asexual parasites Efficacy (% response) [6]: inactive; Activity against asexual parasites IC50 [6]: inactive; Emax [4, 11]: 81.7%
O=C1C(=O)c2ncccc2-c2cccnc21 [Phanquinone]	Inactive	37	53	109	23	
Cc1c2oc3c(C)ccc(C(=O)N[C@@H]4C(=O)N[C@H](C(C)C)C(=O)N5CCC[C@H]5C(=O)N(C)CC(=O)N(C)[C@@H](C(C)C)C(=O)O[C@@H]4C)c3nc-2c(C(=O)N[C@@H]2C(=O)N[C@H](C(C)C)C(=O)N3CCC[C@H]3C(=O)N(C)CC(=O)N(C)[C@@H](C(C)C)C(=O)O[C@@H]2C)c(N)c1=O [Dactinomycin] (I: T[dV]P[Sar][NMeV] / II: T[dV]P[Sar][NMeV]; ester I:1-I:C, II:1-II:C; linker I:N-II:N via Actinocin(9to1))	Inactive				1	IC50 ([2]; Plasmodium falciparum, HB3, read-out: HB3-gametocytes IC50): 19 nM; IC50 ([3]; Plasmodium falciparum, DD2, read-out: Dd2-gametocytes IC50): 33 nM; IC50 ([4]; Plasmodium falciparum, 3D7, read-out: Gametocyte IC50): 15 nM
C=CCN1C[C@H](C(=O)N(CCCN(C)C)C(=O)NCC)C[C@@H]2c3cccc4[nH]cc(c34)C[C@H]21 [Cabergoline, reference compound]						Activity against asexual parasites Efficacy (% response) [6]: -63.65 % response; IC50 ([6]; read-out: Activity against asexual parasites IC50): 17800 nM; Emax [4, 11]: 80.1%; IC50 [4, 12]: 17800 nM
COC(=O)C[C@](O)(CCCC(C)(C)O)C(=O)O[C@@H]1C(OC)=C[C@]23CCCN2CCc2cc4c(cc2[C@H]13)OCO4 [Omacetaxine]	Curve not complete					% Max response [1]: -27%; IC50 [4, 7]: 83 nM
NC(=O)N1c2ccccc2CC(=O)c2ccccc21 [Oxcarbazepine, reference compound]						Activity against asexual parasites Efficacy (% response) [6]: inactive; Activity against asexual parasites IC50 [6]: inactive; Activity against gametocytes Efficacy (% response) ([4]; SI Table 3, structure clusters): inactive; Activity against gametocytes IC50 ([4]; SI Table 3, structure clusters): inactive
CCN(CC)C(=O)N[C@H]1C[C@@H]2c3cccc4[nH]cc(c34)C[C@H]2N(C)C1 [Terguride, reference compound]						Activity against asexual parasites Efficacy (% response) [6]: inactive; Activity against asexual parasites IC50 [6]: inactive; Emax [4, 11]: 80.7%; IC50 [4, 12]: 28200 nM
CCN(CCO)CCCOc1ccc2c(Nc3cc(CC(=O)Nc4cccc(F)c4)n[nH]3)ncnc2c1 [AZD-1152-HQPA]	Inactive	1480	1480	743	11	

The next lines start with results.

IC50 in HepG2 cells [1]	IC50 [2, 8] [nM]	IC50 [3, 9] [nM]	IC50 [4, 10] [nM]	Compound	Emax [5] [%]	also measured
Inactive				C=CC1CN2CCC1CC2C(O)c1ccnc2ccc(OC)cc12.C=CC1CN2CCC1CC2C(O)c1ccnc2ccc(OC)cc12.O=S(=O)(O)O (stereo not drawn) [Quinine hemisulfate]		% Max response [1]: 2%; IC50 ([2]; strain profiling, 11 concentrations, 1:3 dilution, three times, read-out: HB3-gametocytes IC50): 235 nM; IC50 ([3]; strain profiling, 11 concentrations, 1:3 dilution, three times, read-out: Dd2-gametocytes IC50): 83 nM; IC50 [4, 7]: 345 nM
Inactive	59	53	77	C[C@H]1[C@@H](O)O[C@@H]2O[C@@]3(C)CC[C@H]4[C@H](C)CC[C@@H]1[C@@]24OO3 [Artenimol (DHA), Artenimol]	20	
Inactive	935	526	307	CN(C)c1ccc2nc3ccc(=[N+](C)C)cc-3sc2c1 [Methylene blue]	-20	
Inactive	47	53	73	CO[C@H]1O[C@@H]2O[C@@]3(C)CC[C@H]4[C@H](C)CC[C@@H]([C@H]1C)[C@@]24OO3 [Artemether]	7	IC50 ([4]; Plasmodium falciparum, 3D7, strain profiling, 11 concentrations, 1:3 dilution, three times, read-out: 3D7-gametocytes IC50): 74 nM
Inactive				COc1ccc(C2NC(=S)N3C(c4ccc(OC)c(OC)c4)NC(=S)N23)cc1OC (stereo not drawn) [NSC174938]		
